Assay results from article PMC7765930, “Antiproliferative Phenanthrenes from Juncus tenuis: Isolation and Diversity-Oriented Semisynthetic Modification” (Molecules, 2020).
Where two headings read alike, the source gives them in different places.

Tested on: MRC-5 human embryonal lung fibroblast cell line
Test: MTT antiproliferative assay, MRC-5
Assay type: cell-based
Details: 100–0.19 μM, non-tumoral cells; for IC50: read-out: IC50 (µM) ± SD MRC-5
Experimental: Breast cancer cell line MCF-7 (ATCC® HTB-22) and the drug-resistant subline of the human breast cancer MCF-7 (ECACC 86012803; KCR) were purchased from LGC Promochem (Teddington, UK). Both cell lines were cultured in Eagle’s Minimal Essential Medium (EMEM, containing 4.5 g/L glucose) supplemented with a non-essential amino acid mixture, a selection of vitamins, and 10% heat-inactivated fetal bovine serum. In every third passage, 0.56 µg/mL doxorubicin was added to the medium, in order to maintain the ABCB1 (P-glycoprotein) expression in KCR cells. A2780 human ovarian cancer cell line (ECACC, European Collection of Authentical Cell Culture, Sigma Cat.no. 93112519) was purchased from Merck KGaA (Darmstadt, Germany). […] The human ovarian cancer cell lines were cultured in RPMI 1640 medium supplemented with 10% heat-inactivated fetal bovine serum. […] HeLa (ATCC® CCL-2™) human cervix carcinoma cell line was purchased from LGC Promochem (Teddington, UK). The cells were cultured in Eagle’s Minimal Essential Medium (EMEM, containing 4.5 g/L glucose) supplemented with a non-essential amino acid mixture, a selection of vitamins, and 10% heat-inactivated fetal bovine serum. MRC-5 human embryonal lung fibroblast cell line (ATCC® CCL-171) was purchased from LGC Promochem, Teddington, UK. The cell line was cultured in Eagle’s Minimal Essential Medium (EMEM, containing 4.5 g/L glucose) supplemented with a non-essential amino acid mixture, a selection of vitamins, and 10% heat-inactivated fetal bovine serum. HTB-26 breast adenocarcinoma cell line was purchased from LGC Promochem, Teddington, UK. The cell line was cultured in RPMI 1640 medium supplemented with 10% heat-inactivated fetal bovine serum. T-47D (ATCC® HTB-133™) ductal carcinoma cell line was purchased from LGC Promochem, Teddington, UK. The cells were cultured in RPMI 1640 medium supplemented with 10% heat-inactivated fetal bovine serum, 2 mM L-glutamine, 1 mM Na-pyruvate, and 100 mM Hepes. All of the cells were incubated at 37 °C, in a 5% CO2 and 95% air atmosphere.
The antiproliferative effect of the compounds was determined on human breast (MCF-7, KCR, T47D, and HTB-26), cervical (HeLa), and ovarian (A2780 and A2780cis) cancer cells, and on MRC-5 (human embryonic lung fibroblast) cell lines. The adherent cells were cultured in 96-well flat-bottomed microtiter plates, using EMEM supplemented with 10% heat-inactivated fetal bovine serum or RPMI 1640 supplemented with 10% heat-inactivated fetal bovine serum, respectively. The density of the cells was adjusted to 6 × 10^3 cells in 100 μL per well, the cells were seeded for 24 h at 37 °C, with 5% CO2, and then the medium was removed from the plates, and fresh medium (100 μL per well) was added to the cells. The effects of increasing concentrations of compounds on cell proliferation were tested in 96-well flat-bottomed microtiter plates. The compounds were diluted in the appropriate medium; the dilutions of compounds were performed in separate plates and then added to the cells. The starting concentration of the compounds was 100 μM, and two-fold serial dilution was performed (concentration range: 100–0.19 μM). The culture plates were incubated at 37 °C for 72 h; at the end of the incubation period, 20 μL of MTT (thiazolyl blue tetrazolium bromide, Sigma) solution (from a stock solution of 5 mg/mL) was added to each well. After incubation at 37 °C for 4 h, 100 μL of sodium dodecyl sulfate (SDS) (Sigma) solution (10% in 0.01 M HCI) was added to each well, and the plates were further incubated, at 37 °C, overnight. Cell growth was determined by measuring the optical density (OD) at 540/630 nm, with a Multiscan EX ELISA reader (Thermo Labsystems, Cheshire, WA, USA). Mean IC50 values were obtained by best-fitting the dose-dependent inhibition curves in GraphPadPrism5 program (GraphPad Software version 5.00 for Windows, San Diego, CA, USA) from four parallel experiments for each cell line.

| SMILES | IC50 (72 h) [µM] | IC50 (µM) ± SD MRC-5 (72 h) | IC50 (Homo sapiens, MRC5, 72 h) [µM] |
| --- | --- | --- | --- |
| N.N.[Cl][Pt][Cl] [Cisplatin, cisplatin, reference compound] | 0.6 |  |  |
| C=CC1=C(C)C(=O)C=C2CCC3=C(C=CC(=O)C3(C)OC)C21OC (centres unmarked) [Compound 1b] |  | did not show an antiproliferative effect | > 100 |
| C=CC1=C(C)C(=O)C=C2CCC3=C(C=CC(=O)C3(C)OCC)C21OCC (centres unmarked) [Compound 2a] |  | did not show an antiproliferative effect | > 100 |
| C=CC1=C(C)C(=O)C=C2CCC3=C(C=CC(=O)C3(C)OCC)C21OCC (centres unmarked) [Compound 2b] | 57.7 ± 0.3 |  |  |
| C=CC1=CC(=O)C=C2CCC3=C(C=CC(=O)C3(C)OC)C12OC (centres unmarked) [Compound 3] |  |  | 12.2 ± 0.2 |
| C=CC1=CC(=O)C=C2CCC3=C(C=CC(=O)C3(C)OCC)C12OCC (centres unmarked) [Compound 4a] |  |  | 14.3 ± 0.5 |
| C=CC1=CC(=O)C=C2CCC3=C(C=CC(=O)C3(C)OCC)C12OCC (centres unmarked) [Compound 4b] | 23.4 ± 1.3 |  |  |
| C=Cc1cc(O)cc2c1-c1ccc(O)c(C)c1CC2 [effusol] |  |  | 60.1 ± 5.1 |
| C=Cc1c(C)c(O)cc2c1-c1ccc(O)c(C)c1CC2 [juncusol] |  |  | 40.9 ± 2 |
